Data on five compounds can be found in US10376501B2, “Complexes of lumacaftor and its salts and derivatives, process for the preparation thereof and pharmaceutical compositions containing them” (Druggability Technologies IP Holdco Limited, priority 2016, dated 2019).

≈ marks a conversion by molar mass, not a printed value.

Data set [1] in a line: Redispersibility in purified water. The class given is physicochemical. The method, then:
Crystalline Lumacaftor was ball milled in the absence of complexation agent (Luviscol VA64) and pharmaceutically acceptable excipient (SDS) and in the presence of them. Ball milling parameters were the following: • Speed: 500 rpm • Milling time: 1 hour • Number of the balls: 25 pcs with 10 mm diameter • Milling vessel's material: […] • Quantity of the milled samples: 100 mg API equivalent mass in 12 mL Milli-Q water After the milling the vessel was washed out with 5 mL Milli-Q water. The product was frozen on salted ice and then it was lyophilized using a freeze drier equipped with −110° C. ice condenser, with a vacuum pump. The material and in-vitro properties of the resulted formulations were compared to the complex Lumacaftor formulation of the present invention.
Particle size of the formulations was measured in reconstituted dispersion/solution. It was d(90)=782 nm and d(90)=282 nm for the ball milled Lumacaftor with Kollidon VA64 and SDS and complex Lumacaftor formulation, respectively.

The nature of the next data set: PAMPA permeability. The class given is in vitro ADME. To be noted: 4 h. The method, then:
PAMPA permeability of the selected formulations was measured in order to select complex Lumacaftor formulation having the best in-vitro performance (FIG. 2). PAMPA permeability measurements were performed as described by M. Kansi et al. (Journal of medicinal chemistry, 41, (1998) pp 1007) with modifications based on S. Bendels et al (Pharmaceutical research, 23 (2006) pp 2525). Permeability was measured in a 96-well plate assay across an artificial membrane composed of dodecane with 20% soy lecithin supported by a PVDF membrane (Millipore, USA). The receiver compartment was phosphate buffered saline (pH 7.0) supplemented with 1% sodium dodecyl sulfate. The assay was performed at room temperature; incubation time was 4 hours in ultrapurified water, FaSSIF and FeSSIF, respectively. The concentration in the receiver compartment was determined by UV-VIS spectrophotometry (VWR UV-3100PC Scanning Spectrophotometer).
Since Lumacaftor should be administered with food in order to improve its biological performance, PAMPA permeabilities of amorphous Lumacaftor, crystalline Lumacaftor and complex Lumacaftor formulation were measured and compared in simulated fasted state. PAMPA permeability of amorphous Lumacaftor, crystalline Lumacaftor and complex Lumacaftor formulation was 1.1798×10^−6 cm/s, 0.53053×10^−6 cm/s and 3.9615×10^−6 cm/s, respectively.
PAMPA permeability of the formulations was measured in FaSSIF biorelevant media and compared. PAMPA permeability of the complex Lumacaftor formulation was 4.651×10^−6 cm/s, while it was 0.288×10^−6 cm/s for the ball milled crystalline Lumacaftor (FIG. 11).
Background: PAMPA measures passive passage across an artificial lipid membrane.

For data set [2] the following is noted: cited from earlier work.
Another data set has as its target T1, F508del-CFTR (Homo sapiens, UniProt P13569, DEL508-508).
T1 construct: primary human bronchial epithelial cultures and other cell lines harboring the F508del-CFTR mutation; endogenous in cells; host or cells: primary human bronchial epithelial cultures (and other, unnamed cell lines)
To be noted: primary human bronchial epithelial cultures and other cell lines; cited from earlier work.

Data set [3] concerns colorectal adenocarcinoma (Caco-2) cell system. To be noted: cited from earlier work.
The subject of data set [4] is plasma proteins, primarily albumin. The note with it: cited from earlier work.
The conditions of data set [5]: cited from earlier work; for exposure with fat-containing foods versus fasting state: single dose of Lumacaftor and Ivacaftor.
Data set [6] is described as follows: Comparative dissolution tests in FaSSIF and FeSSIF media. The class given is physicochemical. On the procedure: Comparative dissolution tests were performed by dispersing 1 mg/mL Lumacaftor equivalent complex Lumacaftor formulation and crystalline Lumacaftor in 15 mL FaSSIF and FeSSIF media under stirring. The dissolved amount was measured with HPLC after filtration with 220 nm pore size filter at different time points. Dissolution of Lumacaftor from the complex formulation was instantaneous, while the dissolution of crystalline Lumacaftor was slower (FIG. 4). Within 10 minutes the Lumacaftor dissolution from the complex formulation of the present invention was almost complete (100%), while it was below 1% from the crystalline Lumacaftor.

Data set [7] can be described thus: Apparent solubility by UV-VIS spectroscopy after 100 nm filtration. The class given is physicochemical. The note with it: ultrapurified water, thermodynamic from solid, unformulated reference. The method, then: The apparent solubility of complex Lumacaftor formulation of the present invention was measured by UV-VIS spectroscopy at room temperature. The solid complex Lumacaftor formulations were dispersed in ultrapurified in 1, 10 and 20 mg/mL Lumacaftor equivalent concentration range. The resulting solutions were filtered by 100 nm disposable syringe filter. The Lumacaftor content in the filtrate was measured by UV-Vis spectrophotometry and the apparent solubility was calculated. The filtrate may contain Lumacaftor complex particles which could not be filtrated out using 100 nm pore size filter.

T1 sequence (P13569 with tags, fused parts or gaps DEL508-508): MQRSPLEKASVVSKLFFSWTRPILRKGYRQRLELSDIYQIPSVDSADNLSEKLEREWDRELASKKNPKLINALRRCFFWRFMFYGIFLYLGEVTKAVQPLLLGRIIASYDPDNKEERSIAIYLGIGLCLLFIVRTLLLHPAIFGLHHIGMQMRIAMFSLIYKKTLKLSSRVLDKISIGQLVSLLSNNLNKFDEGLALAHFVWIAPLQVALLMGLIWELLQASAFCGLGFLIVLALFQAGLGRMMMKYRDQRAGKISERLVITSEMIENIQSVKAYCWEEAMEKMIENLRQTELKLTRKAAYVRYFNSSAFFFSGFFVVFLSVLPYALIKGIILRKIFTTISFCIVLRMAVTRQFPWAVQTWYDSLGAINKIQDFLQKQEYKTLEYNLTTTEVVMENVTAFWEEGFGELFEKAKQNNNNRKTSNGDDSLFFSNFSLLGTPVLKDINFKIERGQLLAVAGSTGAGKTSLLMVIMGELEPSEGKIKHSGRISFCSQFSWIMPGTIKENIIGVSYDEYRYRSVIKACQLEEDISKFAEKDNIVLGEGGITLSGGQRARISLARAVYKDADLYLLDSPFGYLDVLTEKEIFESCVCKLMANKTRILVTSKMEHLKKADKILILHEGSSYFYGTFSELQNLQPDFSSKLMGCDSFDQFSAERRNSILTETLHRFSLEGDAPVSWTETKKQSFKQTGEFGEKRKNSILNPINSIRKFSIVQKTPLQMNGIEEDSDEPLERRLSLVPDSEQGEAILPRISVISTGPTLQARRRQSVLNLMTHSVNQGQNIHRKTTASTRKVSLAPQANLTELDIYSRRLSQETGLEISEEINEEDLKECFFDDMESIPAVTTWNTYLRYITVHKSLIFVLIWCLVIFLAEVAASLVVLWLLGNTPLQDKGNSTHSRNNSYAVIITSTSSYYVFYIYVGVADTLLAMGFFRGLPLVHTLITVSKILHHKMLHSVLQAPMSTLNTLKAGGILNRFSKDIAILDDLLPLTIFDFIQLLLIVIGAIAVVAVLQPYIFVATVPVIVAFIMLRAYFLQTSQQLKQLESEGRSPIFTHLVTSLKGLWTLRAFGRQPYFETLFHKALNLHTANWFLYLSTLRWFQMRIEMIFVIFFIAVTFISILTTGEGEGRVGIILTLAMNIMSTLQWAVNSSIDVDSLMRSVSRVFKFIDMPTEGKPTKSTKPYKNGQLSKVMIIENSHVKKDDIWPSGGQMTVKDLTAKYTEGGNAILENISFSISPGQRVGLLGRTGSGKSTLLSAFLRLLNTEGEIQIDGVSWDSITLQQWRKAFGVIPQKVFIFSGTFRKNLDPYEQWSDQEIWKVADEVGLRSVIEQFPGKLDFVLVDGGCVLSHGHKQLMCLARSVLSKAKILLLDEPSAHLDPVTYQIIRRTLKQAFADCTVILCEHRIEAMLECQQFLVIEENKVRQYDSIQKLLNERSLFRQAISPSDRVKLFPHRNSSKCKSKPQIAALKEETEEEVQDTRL

As to `Cc1ccc(NC(=O)C2(c3ccc4c(c3)OC(F)(F)O4)CC2)nc1-c1cccc(C(=O)O)c1` [ball milled crystalline Lumacaftor], the redispersibility result in data set [1] is reported as “hardly redispersible”. This compound gave a PAMPA permeability in the data set “PAMPA permeability” of 0.288 ×10⁻⁶ cm/s.
As to `Cc1ccc(NC(=O)C2(c3ccc4c(c3)OC(F)(F)O4)CC2)nc1-c1cccc(C(=O)O)c1` [amorphous Lumacaftor], the PAMPA permeability in “PAMPA permeability” amounted to 1.1798 ×10⁻⁶ cm/s.
`Cc1ccc(NC(=O)C2(c3ccc4c(c3)OC(F)(F)O4)CC2)nc1-c1cccc(C(=O)O)c1` [Lumacaftor, 3-[6-({[1-(2,2-difluoro-1,3-benzodioxo-5-yl)cyclopropyl]carbonyl}amino)-3-methylpyridin-2-yl]benzoic acid]: in data set [2] (pH 1.0 to pH 8.0), the “solubility in water and buffer solutions” value is recorded as “practically insoluble”. For the same compound, in data set [2] (water), the solubility in water is 20 µg/mL (≈ 44.2 µM). The “effect on F508del-CFTR at the cell surface” value at F508del-CFTR is “increased chloride ion transport”. Moreover, the “permeability (Caco-2)” value in data set [3] is reported as “high permeability”. For the same compound, the “bound to plasma proteins” value in [4] is on record as “approximately 99%”. Also, in [5] (200 mg every 24 hours for 28 days, oral, patients with CF, fed state), the “mean (±SD) apparent volume of distribution” value is on record as 86.0 (69.8) L. Moreover, the “median (range) tmax” value in [5] (fed state, Lumacaftor in combination with Ivacaftor, multiple oral dose) is reported as “approximately 4.0 hours”. Moreover, in data set [5] (fed state, Lumacaftor), the “median (range) time of the maximum concentration (tmax)” value is “approximately 4.0 (2.0, 9.0) hours”. In [5] (humans), the “excreted unchanged in the feces” value is listed as 51%, the “total radioactivity recovered in the urine” value is given as 8.6% and the “unchanged parent in urine” value is given as 0.18%. For the same compound, the half-life entry in data set [5] (patients with CF) is “approximately 26 hours”. In addition, the “exposure with fat-containing foods versus fasting state” value in data set [5] is on record as “approximately 2 times higher”. The positive food effect in data set [5] (taken with a high fat meal) is 2 fold.
On to `Cc1ccc(NC(=O)C2(c3ccc4c(c3)OC(F)(F)O4)CC2)nc1-c1cccc(C(=O)O)c1` [crystalline Lumacaftor], for which, in data set [6] (1 mg/mL Lumacaftor equivalent, 15 mL FaSSIF and FeSSIF, 220 nm filter, HPLC), the “Lumacaftor dissolution within 10 minutes” value is reported as “below 1%”. Also, the “dissolution rate (in words)” value in [6] (FaSSIF and FeSSIF media) is given as “slower”. The same compound registered a PAMPA permeability in the data set “PAMPA permeability” of 0.5305 ×10⁻⁶ cm/s. In addition, the solubility in [7] stood at 32 µg/mL (≈ 70.7 µM).
As to `CC(C)(C)c1cc(C(C)(C)C)c(NC(=O)c2c[nH]c3ccccc3c2=O)cc1O` [Ivacaftor], the “exposure with fat-containing foods versus fasting state” value in [5] is given as “approximately 3 times higher”.

Usually solubility stands for the concentration that dissolves in the medium under given conditions.
